Earlier results in patent EP0860164A1, “Cosmetic and dermatological composition for sun protection containing triazine derivates and butylenglycol diesters” (Beiersdorf Aktiengesellschaft, priority 1997, dated 1998).

Conditions: maximum amount of the filter that known solvents (Bekannte Lösungsmittel) can dissolve

CCCCC(CC)COC(=O)c1ccc(Nc2nc(Nc3ccc(C(=O)OCC(CC)CCCC)cc3)nc(Nc3ccc(C(=O)OCC(CC)CCCC)cc3)n2)cc1 (stereo not shown) [UVINUL® T 150, 4,4',4''-(1,3,5-Triazin-2,4,6-triyltriimino)-tris-benzoesäure-tris(2-ethylhexylester)]
Löslichkeit in Lipiden: ≤ 15 Gew.-%
